ChEMBL document CHEMBL4270597, “Donepezil-butylated hydroxytoluene (BHT) hybrids as Anti-Alzheimer's disease agents with cholinergic, antioxidant, and neuroprotective properties” (Eur J Med Chem, 2018)
Activity calls are given as the source filed them. The rule behind the calls is not given here.

Legend:
Acetylcholinesterase [1] = target: Acetylcholinesterase (Electrophorus electricus, UniProt O42275); experiment: Inhibition of electric eel AChE using acetylthiocholine chloride as substrate incubated for 5 mins followed by substrate addition measured after 180 secs by Ellman's method
Chain of Acetylcholinesterase (Electrophorus electricus, UniProt O42275) (O42275 whole entry): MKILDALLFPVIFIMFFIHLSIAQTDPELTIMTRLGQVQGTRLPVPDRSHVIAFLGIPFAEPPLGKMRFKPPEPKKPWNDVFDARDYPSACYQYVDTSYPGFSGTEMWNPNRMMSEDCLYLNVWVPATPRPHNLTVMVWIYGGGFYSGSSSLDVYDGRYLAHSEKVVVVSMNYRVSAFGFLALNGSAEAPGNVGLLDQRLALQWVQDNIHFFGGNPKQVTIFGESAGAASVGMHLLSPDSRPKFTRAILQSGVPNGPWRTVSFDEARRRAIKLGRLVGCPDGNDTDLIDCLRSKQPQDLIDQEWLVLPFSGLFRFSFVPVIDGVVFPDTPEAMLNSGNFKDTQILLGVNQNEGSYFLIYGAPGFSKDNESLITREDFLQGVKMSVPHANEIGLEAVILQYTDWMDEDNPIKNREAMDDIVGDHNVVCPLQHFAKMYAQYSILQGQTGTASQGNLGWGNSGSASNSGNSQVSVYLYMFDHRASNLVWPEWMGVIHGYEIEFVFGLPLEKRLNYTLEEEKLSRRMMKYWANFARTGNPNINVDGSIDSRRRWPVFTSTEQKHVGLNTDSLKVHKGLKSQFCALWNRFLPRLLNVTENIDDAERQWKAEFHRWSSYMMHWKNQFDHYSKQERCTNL

Cholinesterase [2] = target: Cholinesterase (Equus caballus, UniProt P81908); experiment: Inhibition of equine serum BuChE using butyrylthiocholine iodide as substrate incubated for 5 mins followed by substrate addition measured after 180 secs by Ellman's method
Chain of Cholinesterase (Equus caballus, UniProt P81908) (P81908 whole entry): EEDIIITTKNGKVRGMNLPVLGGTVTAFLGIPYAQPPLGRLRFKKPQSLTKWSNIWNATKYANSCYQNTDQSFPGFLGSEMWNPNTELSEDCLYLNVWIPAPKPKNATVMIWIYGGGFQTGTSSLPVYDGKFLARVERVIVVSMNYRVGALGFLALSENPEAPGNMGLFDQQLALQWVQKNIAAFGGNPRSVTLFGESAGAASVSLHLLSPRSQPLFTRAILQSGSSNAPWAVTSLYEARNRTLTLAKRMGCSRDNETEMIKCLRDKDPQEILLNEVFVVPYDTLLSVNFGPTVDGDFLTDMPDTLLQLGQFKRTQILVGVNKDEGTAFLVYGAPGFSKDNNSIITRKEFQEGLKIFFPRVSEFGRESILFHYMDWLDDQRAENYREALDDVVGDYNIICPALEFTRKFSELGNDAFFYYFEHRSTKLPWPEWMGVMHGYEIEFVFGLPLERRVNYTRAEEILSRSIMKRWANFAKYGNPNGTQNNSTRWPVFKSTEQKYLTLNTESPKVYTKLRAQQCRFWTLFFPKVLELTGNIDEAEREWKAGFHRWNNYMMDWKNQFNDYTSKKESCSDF

Acetylcholinesterase [3] = target: T1, Acetylcholinesterase (Homo sapiens, UniProt P22303); experiment: Inhibition of human erythrocyte AChE using acetylthiocholine chloride as substrate incubated for 5 mins followed by substrate addition measured after 180 secs by Ellman's method
T1 sequence (P22303 whole entry): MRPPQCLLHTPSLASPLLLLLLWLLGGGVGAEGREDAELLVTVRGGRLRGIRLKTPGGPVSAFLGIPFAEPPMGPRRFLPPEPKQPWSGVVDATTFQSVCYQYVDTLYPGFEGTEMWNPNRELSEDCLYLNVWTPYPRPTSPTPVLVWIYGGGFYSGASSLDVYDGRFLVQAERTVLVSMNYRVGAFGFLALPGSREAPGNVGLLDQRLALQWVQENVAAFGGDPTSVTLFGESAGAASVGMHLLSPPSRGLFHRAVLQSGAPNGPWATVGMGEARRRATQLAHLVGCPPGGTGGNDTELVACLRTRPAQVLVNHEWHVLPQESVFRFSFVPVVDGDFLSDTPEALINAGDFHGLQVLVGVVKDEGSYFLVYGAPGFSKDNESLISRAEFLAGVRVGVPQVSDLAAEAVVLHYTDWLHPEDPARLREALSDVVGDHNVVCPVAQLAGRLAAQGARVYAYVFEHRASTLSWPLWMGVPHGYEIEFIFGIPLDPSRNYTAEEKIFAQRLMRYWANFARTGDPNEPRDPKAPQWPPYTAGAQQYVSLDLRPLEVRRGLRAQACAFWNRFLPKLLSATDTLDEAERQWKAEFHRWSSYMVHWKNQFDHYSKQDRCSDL

Cholinesterase [4] = target: T2, Cholinesterase (Homo sapiens, UniProt P06276); experiment: Inhibition of human serum BuChE using butyrylthiocholine iodide as substrate incubated for 5 mins followed by substrate addition measured after 180 secs by Ellman's method; conditions: read-out: IC50
T2 sequence (P06276 whole entry): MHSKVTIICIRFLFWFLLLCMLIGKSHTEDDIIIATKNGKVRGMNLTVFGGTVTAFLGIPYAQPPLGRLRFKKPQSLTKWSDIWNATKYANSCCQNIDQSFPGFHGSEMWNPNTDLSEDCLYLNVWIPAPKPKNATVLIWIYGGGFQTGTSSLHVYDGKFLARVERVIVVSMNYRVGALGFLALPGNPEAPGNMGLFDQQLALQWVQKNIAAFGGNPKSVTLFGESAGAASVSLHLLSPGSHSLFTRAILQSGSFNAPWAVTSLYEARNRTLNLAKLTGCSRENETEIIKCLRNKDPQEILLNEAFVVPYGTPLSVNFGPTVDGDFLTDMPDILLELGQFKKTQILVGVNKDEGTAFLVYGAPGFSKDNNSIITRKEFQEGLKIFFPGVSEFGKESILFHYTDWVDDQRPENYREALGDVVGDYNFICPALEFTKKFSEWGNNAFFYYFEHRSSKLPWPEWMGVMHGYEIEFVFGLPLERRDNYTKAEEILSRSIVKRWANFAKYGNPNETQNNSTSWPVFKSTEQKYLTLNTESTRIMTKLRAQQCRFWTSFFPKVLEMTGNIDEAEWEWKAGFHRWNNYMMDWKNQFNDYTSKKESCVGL

Homo sapiens = species: Homo sapiens; experiment: Selectivity index, ratio of IC50 for human serum BuChE to IC50 for human erythrocyte AChE
[5] = target: T3, Amine oxidase [flavin-containing] A (Homo sapiens, UniProt P21397); experiment: Inhibition of human MAO-A using p-tyramine as substrate incubated for 15 mins followed by substrate addition measured for 20 mins by fluorescence assay
T3 sequence (P21397 whole entry): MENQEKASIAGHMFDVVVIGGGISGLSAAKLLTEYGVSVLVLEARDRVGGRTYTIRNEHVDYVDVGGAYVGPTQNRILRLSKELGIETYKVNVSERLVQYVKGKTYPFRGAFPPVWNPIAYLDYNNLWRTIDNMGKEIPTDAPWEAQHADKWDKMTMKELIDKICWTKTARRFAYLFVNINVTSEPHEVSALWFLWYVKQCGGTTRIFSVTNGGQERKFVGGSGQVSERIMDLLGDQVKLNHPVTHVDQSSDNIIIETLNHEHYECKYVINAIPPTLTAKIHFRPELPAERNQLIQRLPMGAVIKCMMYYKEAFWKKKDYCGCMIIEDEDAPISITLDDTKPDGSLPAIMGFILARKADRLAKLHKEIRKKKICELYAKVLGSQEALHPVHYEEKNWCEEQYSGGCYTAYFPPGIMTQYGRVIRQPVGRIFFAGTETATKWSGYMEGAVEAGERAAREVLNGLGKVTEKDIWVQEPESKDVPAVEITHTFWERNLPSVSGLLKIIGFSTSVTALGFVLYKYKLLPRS

[6] = target: T4, Amine oxidase [flavin-containing] B (Homo sapiens, UniProt P27338); experiment: Inhibition of human MAO-B at 100 uM using p-tyramine as substrate incubated for 15 mins followed by substrate addition measured for 20 mins by fluorescence assay relative to control
T4 sequence (P27338 whole entry): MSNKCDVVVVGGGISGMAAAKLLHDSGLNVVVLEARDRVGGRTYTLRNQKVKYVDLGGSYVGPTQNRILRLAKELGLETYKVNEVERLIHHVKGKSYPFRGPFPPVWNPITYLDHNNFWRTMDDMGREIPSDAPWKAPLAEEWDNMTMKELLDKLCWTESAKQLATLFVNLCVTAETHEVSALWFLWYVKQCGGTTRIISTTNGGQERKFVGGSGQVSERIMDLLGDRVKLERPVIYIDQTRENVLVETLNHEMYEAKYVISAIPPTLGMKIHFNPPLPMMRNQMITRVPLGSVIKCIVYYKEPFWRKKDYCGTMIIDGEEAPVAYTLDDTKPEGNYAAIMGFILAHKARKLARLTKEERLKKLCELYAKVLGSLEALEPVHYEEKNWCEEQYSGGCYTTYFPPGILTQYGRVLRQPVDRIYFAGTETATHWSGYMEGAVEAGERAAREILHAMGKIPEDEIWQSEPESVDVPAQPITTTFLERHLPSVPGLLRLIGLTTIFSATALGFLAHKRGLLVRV

[7] = Antioxidant activity assessed as DPPH radical scavenging activity at 100 uM measured after 30 mins incubation in dark by UV-Visible spectrophotometric analysis relative to control; type: functional
[8] = Antioxidant activity assessed as ABTS radical cation scavenging activity by measuring trolox equivalent antioxidant capacity measured at 6 mins; type: functional
[9] = Antioxidant activity assessed as trolox equivalent of AAPH-induced radical scavenging activity preincubated for 15 mins followed by AAPH addition measured every minute for 120 mins by ORAC-FL based fluorescein assay; type: functional
PC-12 [10] = experiment: Cytotoxicity against rat PC12 cells assessed as decrease in cell viability at 20 uM after 24 hrs by MTT assay; type: cell-based; conditions: pc-12, 24 h
[11] = Antioxidant activity assessed as DPPH radical scavenging activity measured after 30 mins incubation in dark by UV-Visible spectrophotometric analysis; type: functional
PC-12 [12] = experiment: Cytotoxicity against rat PC12 cells assessed as decrease in cell viability at 30 uM after 24 hrs by MTT assay; type: cell-based; conditions: pc-12, 24 h
[13] = target: T4, Amine oxidase [flavin-containing] B; experiment: Inhibition of human MAO-B using p-tyramine as substrate incubated for 15 mins followed by substrate addition measured for 20 mins by fluorescence assay
[14] = target: Cholinesterase (Equus caballus) (UniProt P81908); experiment: Inhibition of equine serum BuChE at 100 uM using butyrylthiocholine iodide as substrate incubated for 5 mins followed by substrate addition measured after 180 secs by Ellman's method relative to control
Chain of Cholinesterase (Equus caballus) (P81908 whole entry): as the sequence (P81908 whole entry) above

Acetylcholinesterase [15] = target: T1, Acetylcholinesterase; experiment: Mixed-type inhibition of human AChE using acetylthiocholine chloride as substrate incubated for 5 mins followed by substrate addition by Lineweaver-Burk plot analysis
PC-12 [16] = experiment: Neuroprotective activity against H2O2-induced oxidative stress in rat PC12 cells assessed as increase in cell viability pretreated for 4 hrs followed by H2O2 challenge measured after 24 hrs by MTT assay; type: functional, cell-based
[17] = target: Amyloid-beta precursor protein (Homo sapiens) (UniProt P05067); experiment: Inhibition of AChE-induced amyloid beta 40 (unknown origin) aggregation at 100 uM by thioflavin-T fluorescence assay relative to control
Chain of Amyloid-beta precursor protein (Homo sapiens) (P05067 whole entry): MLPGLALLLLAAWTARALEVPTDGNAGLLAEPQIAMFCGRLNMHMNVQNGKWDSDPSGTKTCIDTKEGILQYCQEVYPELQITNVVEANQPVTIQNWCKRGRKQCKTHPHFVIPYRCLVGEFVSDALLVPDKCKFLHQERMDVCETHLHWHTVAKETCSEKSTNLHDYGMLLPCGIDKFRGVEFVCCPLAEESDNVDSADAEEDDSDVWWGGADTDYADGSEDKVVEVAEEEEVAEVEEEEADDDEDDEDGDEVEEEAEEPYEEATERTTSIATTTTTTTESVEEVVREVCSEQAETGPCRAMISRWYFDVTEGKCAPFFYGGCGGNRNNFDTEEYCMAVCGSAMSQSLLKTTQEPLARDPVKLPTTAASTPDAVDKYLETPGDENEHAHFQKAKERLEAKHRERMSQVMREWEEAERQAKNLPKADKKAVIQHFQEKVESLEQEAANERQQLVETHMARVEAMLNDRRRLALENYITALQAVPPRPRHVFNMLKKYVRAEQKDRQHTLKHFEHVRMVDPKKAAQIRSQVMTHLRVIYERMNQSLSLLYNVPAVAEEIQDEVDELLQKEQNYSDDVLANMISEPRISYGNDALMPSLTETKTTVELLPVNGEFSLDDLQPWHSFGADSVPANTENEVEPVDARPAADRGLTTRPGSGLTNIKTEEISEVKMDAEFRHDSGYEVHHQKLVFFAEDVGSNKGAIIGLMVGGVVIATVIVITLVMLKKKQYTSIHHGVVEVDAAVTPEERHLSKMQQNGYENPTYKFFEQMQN

[18] = target: Amyloid-beta precursor protein (Homo sapiens) (UniProt P05067); experiment: Inhibition of self-induced amyloid beta 42 (unknown origin) aggregation at 20 uM incubated for 46 to 48 hrs by thioflavin-T fluorescence assay relative to control
Acetylcholinesterase [19] = target: T1, Acetylcholinesterase; experiment: Inhibition of human erythrocyte AChE at 100 uM using acetylthiocholine chloride as substrate incubated for 5 mins followed by substrate addition measured after 180 secs by Ellman's method relative to control
Cholinesterase [20] = target: T2, Cholinesterase; experiment: Inhibition of human serum BuChE at 100 uM using butyrylthiocholine iodide as substrate incubated for 5 mins followed by substrate addition measured after 180 secs by Ellman's method relative to control
[21] = target: T3, Amine oxidase [flavin-containing] A; experiment: Inhibition of human MAO-A at 100 uM using p-tyramine as substrate incubated for 15 mins followed by substrate addition measured for 20 mins by fluorescence assay relative to control
[22] = target: Acetylcholinesterase (Electrophorus electricus) (UniProt O42275); experiment: Inhibition of electric eel AChE at 100 uM using acetylthiocholine chloride as substrate incubated for 5 mins followed by substrate addition measured after 180 secs by Ellman's method relative to control
Chain of Acetylcholinesterase (Electrophorus electricus) (O42275 24-633 limits assumed): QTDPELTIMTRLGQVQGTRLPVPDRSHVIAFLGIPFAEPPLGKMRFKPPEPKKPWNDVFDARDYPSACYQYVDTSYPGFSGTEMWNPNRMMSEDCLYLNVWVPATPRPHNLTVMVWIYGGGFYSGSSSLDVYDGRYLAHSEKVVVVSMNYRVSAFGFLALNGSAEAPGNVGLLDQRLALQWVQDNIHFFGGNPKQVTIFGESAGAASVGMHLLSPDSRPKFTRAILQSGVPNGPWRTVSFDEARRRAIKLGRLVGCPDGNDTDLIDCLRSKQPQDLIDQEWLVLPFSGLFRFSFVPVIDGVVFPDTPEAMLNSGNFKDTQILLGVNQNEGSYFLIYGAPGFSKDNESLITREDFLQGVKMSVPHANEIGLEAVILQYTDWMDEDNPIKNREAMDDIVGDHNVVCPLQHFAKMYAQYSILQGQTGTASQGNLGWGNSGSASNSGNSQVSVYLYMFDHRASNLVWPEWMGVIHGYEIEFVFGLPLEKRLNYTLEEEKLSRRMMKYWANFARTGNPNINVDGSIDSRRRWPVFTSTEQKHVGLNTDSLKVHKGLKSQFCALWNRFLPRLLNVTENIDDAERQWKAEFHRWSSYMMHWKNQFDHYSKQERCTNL

BV-2 = experiment: Antineuroinflammatory activity in mouse BV2 cells assessed as inhibition of LPS-induced NO production at 10 to 30 uM after 24 hrs by Griess assay; type: functional, cell-based
[23] = Half life in Sprague-Dawley rat liver microsomes in presence of NADPH by UPLC/MS analysis; conditions: liver microsomes

## CC(C)(C)c1cc(C(=O)CNCC2CCN(Cc3ccccc3)CC2)cc(C(C)(C)C)c1O
Acetylcholinesterase [1]
  IC50: 6.43 µM
Cholinesterase [2]
  IC50: 5.38 µM
Acetylcholinesterase [3]
  IC50: 2.44 µM
Cholinesterase [4]
  IC50: 9.61 µM
Homo sapiens
  Ratio IC50: 4
[5]
  IC50: 41.5 µM
[6]
  inhibition at 100 µM: 42%
[7]
  Activity: 24.2%
[8]
  Activity (mmolequiv/mmol): 0.28
[9]
  Activity (mmolequiv/mmol): 0.36

## O=C(/C=C/c1ccccc1)NCCC1CCN(Cc2ccccc2)CC1
Acetylcholinesterase [1]
  IC50: 0.55 µM
Acetylcholinesterase [3]
  IC50: 0.45 µM
Cholinesterase [4]
  IC50: 1.67 µM
Homo sapiens
  Ratio IC50: 3.7
PC-12 [10]
  Activity: Non-Toxic
[11]
  IC50: > 200 µM
PC-12 [12]
  Activity: Toxic
[8]
  Activity (mmolequiv/mmol): 0.31
[9]
  Activity (mmolequiv/mmol): 0.72

## CC(C)(C)c1cc(C(=O)CNCCC2CCN(Cc3ccccc3)CC2)cc(C(C)(C)C)c1O
Acetylcholinesterase [1]
  IC50: 2.44 µM
Cholinesterase [2]
  IC50: 48.5 µM
Acetylcholinesterase [3]
  IC50: 1.38 µM
Cholinesterase [4]
  IC50: 19.6 µM
Homo sapiens
  Ratio IC50: 14
[5]
  IC50: 95.2 µM
[13]
  IC50: 92.1 µM
[7]
  Activity: 26.7%
[8]
  Activity (mmolequiv/mmol): 0.27
[9]
  Activity (mmolequiv/mmol): 0.31

## CC(C)(C)c1cc(/C=C/C(=O)NCCC2CCN(Cc3ccccc3)CC2)cc(C(C)(C)C)c1O
Acetylcholinesterase [1]
  IC50: 0.53 µM
[14]
  inhibition: 48%
Acetylcholinesterase [3]
  IC50: 2.23 µM
Cholinesterase [4]
  IC50: 84.8 µM
Homo sapiens
  Ratio IC50: 38
Acetylcholinesterase [15]
  Ki: 3.2 µM
PC-12 [16]
  Activity: Dose-dependent effect
PC-12 [10]
  Activity: Non-Toxic
[5]
  IC50: 62.3 µM
[13]
  IC50: 8.5 µM
[11]
  IC50: 81.7 µM
PC-12 [12]
  Activity: Toxic
[17]
  inhibition: 38.4%
[8]
  Activity (mmolequiv/mmol): 0.91
[9]
  Activity (mmolequiv/mmol): 1.52
[18]
  inhibition: 43.5 to 56.7%

## CC(C)(C)c1cc(C(=O)NC2CCN(Cc3ccccc3)CC2)cc(C(C)(C)C)c1O
Acetylcholinesterase [1]
  IC50: 55.6 µM
[14]
  inhibition: 34.6%
Acetylcholinesterase [19]
  inhibition: 20.1%
Cholinesterase [20]
  inhibition: 19.6%
[13]
  IC50: 85.1 µM
[21]
  inhibition at 100 µM: 49.2%
[7]
  Activity: 47.4%
[8]
  Activity (mmolequiv/mmol): 0.74
[9]
  Activity (mmolequiv/mmol): 1.53

## CC(C)(C)c1cc(CCC(=O)NCC2CCN(Cc3ccccc3)CC2)cc(C(C)(C)C)c1O
[22]
  inhibition: 27.4%
[14]
  inhibition: 14.6%
Acetylcholinesterase [19]
  inhibition: 12.6%
Cholinesterase [20]
  inhibition: 14%
[13]
  IC50: 89.1 µM
[21]
  inhibition at 100 µM: 38.4%
[11]
  IC50: 63.4 µM
[8]
  Activity (mmolequiv/mmol): 0.63
[9]
  Activity (mmolequiv/mmol): 0.97

## Cc1cc(C(C)(C)C)c(O)c(C(C)(C)C)c1 [BUTYLATED HYDROXYTOLUENE]
[11]
  IC50: 88.6 µM
[8]
  Activity (mmolequiv/mmol): 0.59
[9]
  Activity (mmolequiv/mmol): 1.57
BV-2
  inhibition: Active

## CC(C)(C)c1cc(C(=O)CNC2CCN(Cc3ccccc3)CC2)cc(C(C)(C)C)c1O
[22]
  inhibition: 45%
[14]
  inhibition: 27.2%
Acetylcholinesterase [19]
  inhibition: 43.4%
Cholinesterase [20]
  inhibition: 26.1%
[5]
  IC50: 104 µM
[13]
  IC50: 83.4 µM
[7]
  Activity: 16.3%
[8]
  Activity (mmolequiv/mmol): 0.36
[9]
  Activity (mmolequiv/mmol): 0.35

## CC(C)(C)c1cc(C(=O)NCCC2CCN(Cc3ccccc3)CC2)cc(C(C)(C)C)c1O
[22]
  inhibition: 41.8%
[14]
  inhibition: 49.7%
Acetylcholinesterase [19]
  inhibition: 34.1%
Cholinesterase [20]
  inhibition: 15.8%
[5]
  IC50: 109 µM
[13]
  IC50: 89.2 µM
[7]
  Activity: 49.1%
[8]
  Activity (mmolequiv/mmol): 0.84
[9]
  Activity (mmolequiv/mmol): 1.6

## O=C(/C=C/c1ccc(O)cc1)NCCC1CCN(Cc2ccccc2)CC1
Acetylcholinesterase [1]
  IC50: 0.81 µM
Cholinesterase [2]
  IC50: 1.26 µM
Acetylcholinesterase [3]
  IC50: 2.51 µM
Cholinesterase [4]
  IC50: 1.22 µM
Homo sapiens
  Ratio IC50: 0.49
PC-12 [10]
  Activity: Non-Toxic
[11]
  IC50: 72.1 µM
PC-12 [12]
  Activity: Toxic
[8]
  Activity (mmolequiv/mmol): 0.55
[9]
  Activity (mmolequiv/mmol): 1.81

## Oc1ccc(/C=C/c2cc(O)cc(O)c2)cc1 [RESVERATROL]
[11]
  IC50: 75.1 µM
[8]
  Activity (mmolequiv/mmol): 0.68
[9]
  Activity (mmolequiv/mmol): 1.84
BV-2
  inhibition: Active

## CC(C)(C)c1cc(CCC(=O)NC2CCN(Cc3ccccc3)CC2)cc(C(C)(C)C)c1O
[22]
  inhibition: 34.4%
[14]
  inhibition: 28.7%
Acetylcholinesterase [19]
  inhibition: 30.2%
Cholinesterase [20]
  inhibition: 12.3%
[5]
  IC50: 90.2 µM
[13]
  IC50: 70.4 µM
[11]
  IC50: 80.3 µM
[8]
  Activity (mmolequiv/mmol): 0.68
[9]
  Activity (mmolequiv/mmol): 1.62

## C[C@]12CC[C@H]3[C@@H](CCC4=CC(=O)CC[C@@]43C)[C@@H]1CC[C@@H]2O [TESTOSTERONE]
[23]
  half-life: < 5 min
